Results on ten compounds are retold here after ChEMBL document CHEMBL1136464, “Array synthesis of novel lipodepsipeptide” (Bioorg Med Chem Lett, 2003).

Holding throughout (format): functional
The test system of assay [1] is Enterococcus faecium. The experiment in a line: Antibacterial activity against Enterococcus faecium ATCC 49452 at 0 % serum.
In assay [2] the test system is Enterococcus faecium. Briefly: Antibacterial activity against Enterococcus faecium ATCC 49452 at 10 % serum. The conditions noted are these: ATCC 49452, Serum.
The subject of assay [3] is Enterococcus faecalis. The experiment in a line: Antibacterial activity against Enterococcus faecalis ATCC 6569 at 0 % serum.
The subject of assay [4] is Enterococcus faecalis. Briefly: Antibacterial activity against Enterococcus faecalis ATCC 6569 at 10 % serum. The note with it: ATCC 6569, Serum.
The test system of assay [5] is Staphylococcus aureus. Briefly: Antibacterial activity against methicillin-resistant staphylococcus aureus ATCC 43300 at 10 % serum.
Assay [6] has as its system Staphylococcus aureus. The experiment in a line: Antibacterial activity against methicillin susceptible staphylococcus aureus ATCC 29213 at 0 % serum.
Assay [7] deals with Staphylococcus aureus. The experiment in a line: Antibacterial activity against methicillin susceptible staphylococcus aureus ATCC 29213 at 10 % serum.
Assay [8] has as its system Staphylococcus aureus. The experiment in a line: Antibacterial activity against methicillin-resistant staphylococcus aureus ATCC 43300 at 0 % serum.

Molecules are shown by their SMILES. ≈ marks a conversion by molar mass, not a printed value.

On to `CCCCCCCCCC(=O)N[C@@H](Cc1c[nH]c2ccccc12)C(=O)N[C@H](CC(N)=O)C(=O)N[C@@H](CCO)C(=O)N[C@@H]1C(=O)NCC(=O)N[C@@H](CCCNCc2ccc(OCc3ccccc3)c(Cl)c2)C(=O)N[C@@H](CC(=O)O)C(=O)N[C@H](C)C(=O)N[C@@H](CC(=O)O)C(=O)NCC(=O)N[C@H](CO)C(=O)N[C@@H]([C@H](C)CC(=O)O)C(=O)N[C@@H](CC(=O)c2ccccc2N)C(=O)O[C@@H]1C`, for which the MIC in assay [1] was determined as 0.39 µg/mL (≈ 0.212 µM); in assay [2], 25 µg/mL (≈ 13.6 µM); in assay [3], 0.78 µg/mL (≈ 0.425 µM); in assay [4] it was 12.5 µg/mL (≈ 6.8 µM); in assay [5], 3.13 µg/mL (≈ 1.7 µM); in assay [6], 0.78 µg/mL (≈ 0.425 µM). Also, the MIC in assay [7] turned out to be 3.13 µg/mL (≈ 1.7 µM); in assay [8], 0.78 µg/mL (≈ 0.425 µM).

As to `CCCCCCCCCC(=O)N[C@@H](Cc1c[nH]c2ccccc12)C(=O)N[C@H](CC(N)=O)C(=O)N[C@@H](CCO)C(=O)N[C@@H]1C(=O)NCC(=O)N[C@@H](CCCNCc2ccc(OCc3ccc(F)cc3)c([N+](=O)[O-])c2)C(=O)N[C@@H](CC(=O)O)C(=O)N[C@H](C)C(=O)N[C@@H](CC(=O)O)C(=O)NCC(=O)N[C@H](CO)C(=O)N[C@@H]([C@H](C)CC(=O)O)C(=O)N[C@@H](CC(=O)c2ccccc2N)C(=O)O[C@@H]1C`, the MIC in assay [1] amounted to 1.56 µg/mL (≈ 0.836 µM); in assay [2], 25 µg/mL (≈ 13.4 µM); in assay [3] it was 0.78 µg/mL (≈ 0.418 µM); in assay [4], 12.5 µg/mL (≈ 6.7 µM); in assay [5], 3.13 µg/mL (≈ 1.68 µM); in assay [6], 0.78 µg/mL (≈ 0.418 µM). Besides, the MIC came to 6.25 µg/mL (≈ 3.35 µM) in assay [7] and 0.39 µg/mL (≈ 0.209 µM) in assay [8].

For `CCCCCCCCCC(=O)N[C@@H](Cc1c[nH]c2ccccc12)C(=O)N[C@H](CC(N)=O)C(=O)N[C@@H](CCO)C(=O)N[C@@H]1C(=O)NCC(=O)N[C@@H](CCCNCc2ccc(OCc3ccccc3)cc2)C(=O)N[C@@H](CC(=O)O)C(=O)N[C@H](C)C(=O)N[C@@H](CC(=O)O)C(=O)NCC(=O)N[C@H](CO)C(=O)N[C@@H]([C@H](C)CC(=O)O)C(=O)N[C@@H](CC(=O)c2ccccc2N)C(=O)O[C@@H]1C`, the MIC stood at 3.13 µg/mL (≈ 1.74 µM) in assay [1]; 25 µg/mL (≈ 13.9 µM) in assay [2]; 1.56 µg/mL (≈ 0.865 µM) in assay [3]; 12.5 µg/mL (≈ 6.93 µM) in assay [4]; 6.25 µg/mL (≈ 3.47 µM) in assay [5]; 0.78 µg/mL (≈ 0.433 µM) in assay [6]. In addition, the figures for the MIC in assay [7] and in assay [8] were 6.25 µg/mL (≈ 3.47 µM) and 0.78 µg/mL (≈ 0.433 µM), respectively.

With `CCCCCCCCCC(=O)N[C@@H](Cc1c[nH]c2ccccc12)C(=O)N[C@H](CC(N)=O)C(=O)N[C@@H](CCO)C(=O)N[C@@H]1C(=O)NCC(=O)N[C@@H](CCCNCc2ccc(OCc3ccccc3)cc2O)C(=O)N[C@@H](CC(=O)O)C(=O)N[C@H](C)C(=O)N[C@@H](CC(=O)O)C(=O)NCC(=O)N[C@H](CO)C(=O)N[C@@H]([C@H](C)CC(=O)O)C(=O)N[C@@H](CC(=O)c2ccccc2N)C(=O)O[C@@H]1C`, the MIC in assay [1] is 6.25 µg/mL (≈ 3.44 µM); in assay [2], 100 µg/mL (≈ 55 µM); in assay [3], 1.56 µg/mL (≈ 0.858 µM); in assay [4] it was 50 µg/mL (≈ 27.5 µM); in assay [5], 12.5 µg/mL (≈ 6.87 µM); in assay [6] it was 3.13 µg/mL (≈ 1.72 µM). Also, the MIC was 25 µg/mL (≈ 13.7 µM) in assay [7] and 1.56 µg/mL (≈ 0.858 µM) in assay [8].

With `CCCCCCCCCC(=O)N[C@@H](Cc1c[nH]c2ccccc12)C(=O)N[C@H](CC(N)=O)C(=O)N[C@@H](CCO)C(=O)N[C@@H]1C(=O)NCC(=O)N[C@@H](CCCNCc2ccc(C(=O)N3CCN(c4ccccc4)CC3)cc2)C(=O)N[C@@H](CC(=O)O)C(=O)N[C@H](C)C(=O)N[C@@H](CC(=O)O)C(=O)NCC(=O)N[C@H](CO)C(=O)N[C@@H]([C@H](C)CC(=O)O)C(=O)N[C@@H](CC(=O)c2ccccc2N)C(=O)O[C@@H]1C`, the MIC in assay [1] stood at 6.25 µg/mL (≈ 3.32 µM); in assay [2] it was 6.25 µg/mL (≈ 3.32 µM); in assay [3], 3.13 µg/mL (≈ 1.66 µM); in assay [4], 6.25 µg/mL (≈ 3.32 µM); in assay [5], 1.56 µg/mL (≈ 0.828 µM); in assay [6] it was 0.78 µg/mL (≈ 0.414 µM). Further, the MIC in assay [7] is 1.56 µg/mL (≈ 0.828 µM); in assay [8] it was 0.78 µg/mL (≈ 0.414 µM).

For `CCCCCCCCCC(=O)N[C@@H](Cc1c[nH]c2ccccc12)C(=O)N[C@H](CC(N)=O)C(=O)N[C@@H](CCO)C(=O)N[C@@H]1C(=O)NCC(=O)N[C@@H](CCCNCc2ccc(C(=O)N3CCN(Cc4ccccc4)CC3)cc2)C(=O)N[C@@H](CC(=O)O)C(=O)N[C@H](C)C(=O)N[C@@H](CC(=O)O)C(=O)NCC(=O)N[C@H](CO)C(=O)N[C@@H]([C@H](C)CC(=O)O)C(=O)N[C@@H](CC(=O)c2ccccc2N)C(=O)O[C@@H]1C`, the MIC in assay [1] stood at 3.13 µg/mL (≈ 1.65 µM); in assay [2], 6.25 µg/mL (≈ 3.29 µM); in assay [3] it was 6.25 µg/mL (≈ 3.29 µM); in assay [4], 6.25 µg/mL (≈ 3.29 µM); in assay [5], 0.39 µg/mL (≈ 0.205 µM); in assay [6] it was 0.78 µg/mL (≈ 0.411 µM). Moreover, the MIC in assay [7] is 0.78 µg/mL (≈ 0.411 µM); in assay [8], 0.39 µg/mL (≈ 0.205 µM).

Regarding `CCCCCCCCCC(=O)N[C@@H](Cc1c[nH]c2ccccc12)C(=O)N[C@H](CC(N)=O)C(=O)N[C@@H](CCO)C(=O)N[C@@H]1C(=O)NCC(=O)N[C@@H](CCCNCc2ccc3ccccc3n2)C(=O)N[C@@H](CC(=O)O)C(=O)N[C@H](C)C(=O)N[C@@H](CC(=O)O)C(=O)NCC(=O)N[C@H](CO)C(=O)N[C@@H]([C@H](C)CC(=O)O)C(=O)N[C@@H](CC(=O)c2ccccc2N)C(=O)O[C@@H]1C`, the MIC was found to be 6.25 µg/mL (≈ 3.58 µM) in assay [1]; 25 µg/mL (≈ 14.3 µM) in assay [2]; 6.25 µg/mL (≈ 3.58 µM) in assay [3]; 12.5 µg/mL (≈ 7.15 µM) in assay [4]; 0.78 µg/mL (≈ 0.446 µM) in assay [5]; 0.78 µg/mL (≈ 0.446 µM) in assay [6]. For the same compound, the MIC in assay [7] worked out at 1.56 µg/mL (≈ 0.893 µM); in assay [8] it was 0.78 µg/mL (≈ 0.446 µM).

For the compound `CCCCCCCCCC(=O)N[C@@H](Cc1c[nH]c2ccccc12)C(=O)N[C@H](CC(N)=O)C(=O)N[C@@H](CCO)C(=O)N[C@@H]1C(=O)NCC(=O)N[C@@H](CCCNCc2ccccc2N)C(=O)N[C@@H](CC(=O)O)C(=O)N[C@H](C)C(=O)N[C@@H](CC(=O)O)C(=O)NCC(=O)N[C@H](CO)C(=O)N[C@@H]([C@H](C)CC(=O)O)C(=O)N[C@@H](CC(=O)c2ccccc2N)C(=O)O[C@@H]1C`, the MIC in assay [1] worked out at 6.25 µg/mL (≈ 3.65 µM); in assay [2], 6.25 µg/mL (≈ 3.65 µM); in assay [3], 6.25 µg/mL (≈ 3.65 µM); in assay [4], 25 µg/mL (≈ 14.6 µM); in assay [5], 1.56 µg/mL (≈ 0.911 µM); in assay [6] it was 0.78 µg/mL (≈ 0.456 µM). Moreover, the minimal inhibitory concentration (MIC) in assay [7] amounted to 3.13 µg/mL (≈ 1.83 µM); in assay [8], 0.78 µg/mL (≈ 0.456 µM).

For the compound `CCCCCCCCCC(=O)N[C@@H](Cc1c[nH]c2ccccc12)C(=O)N[C@H](CC(N)=O)C(=O)N[C@@H](CCO)C(=O)N[C@@H]1C(=O)NCC(=O)N[C@@H](CCCNCc2ccc(S(=O)(=O)NCc3ccc(F)cc3)cc2)C(=O)N[C@@H](CC(=O)O)C(=O)N[C@H](C)C(=O)N[C@@H](CC(=O)O)C(=O)NCC(=O)N[C@H](CO)C(=O)N[C@@H]([C@H](C)CC(=O)O)C(=O)N[C@@H](CC(=O)c2ccccc2N)C(=O)O[C@@H]1C`, the MIC in assay [1] stood at 1.56 µg/mL (≈ 0.828 µM); in assay [2] it was 6.25 µg/mL (≈ 3.32 µM); in assay [3], 1.56 µg/mL (≈ 0.828 µM); in assay [4], 3.13 µg/mL (≈ 1.66 µM); in assay [5], 0.78 µg/mL (≈ 0.414 µM); in assay [6] it was 0.39 µg/mL (≈ 0.207 µM). In addition, the MIC in assay [7] is 1.56 µg/mL (≈ 0.828 µM); in assay [8], 0.39 µg/mL (≈ 0.207 µM).

For `CCCCCCCCCC(=O)N[C@@H](Cc1c[nH]c2ccccc12)C(=O)N[C@H](CC(N)=O)C(=O)N[C@@H](CCO)C(=O)N[C@@H]1C(=O)NCC(=O)N[C@@H](CCCNCc2ccccc2[N+](=O)[O-])C(=O)N[C@@H](CC(=O)O)C(=O)N[C@H](C)C(=O)N[C@@H](CC(=O)O)C(=O)NCC(=O)N[C@H](CO)C(=O)N[C@@H]([C@H](C)CC(=O)O)C(=O)N[C@@H](CC(=O)c2ccccc2N)C(=O)O[C@@H]1C`, the MIC in assay [1] is 12.5 µg/mL (≈ 7.18 µM); in assay [2] it was 25 µg/mL (≈ 14.4 µM); in assay [3] it was 12.5 µg/mL (≈ 7.18 µM); in assay [4], 25 µg/mL (≈ 14.4 µM); in assay [5] it was 0.78 µg/mL (≈ 0.448 µM); in assay [6], 0.78 µg/mL (≈ 0.448 µM). Also, the MIC worked out at 1.56 µg/mL (≈ 0.896 µM) in assay [7] and 0.78 µg/mL (≈ 0.448 µM) in assay [8].

Usually MIC stands for the lowest concentration that inhibits growth of the organism.
